The subject of the assay is GAVE7 expression in THP-1 cells. Put plainly: Immune cell regulation: GAVE7 expression in PMA-differentiated THP-1 cells by Northern blot or TaqMan assay. The class given is cell-based. The following applies: PMA differentiated THP-1 cells stimulated with LPS (10 μg/ml) for 4 hours and 24 hours, actin control. The protocol: THP-1 cells were obtainied from the American Type Culture Collection (Manassas, Va.) and maintained in RPMI culture medium (RPMI 1640, 100 IU/ml penicillin-streptomycin, 10% heat-inactivated fetal bovine serum) at 37° C. in a humidfied 95% air/5% CO2 tissue culture incubator. THP-1 cells were treated with 10 nM phorbol-12-myristate-13-acetate (PMA) and incubated overnight to differentiate the monocyte into an adhereent macrophage-type cell. The differentiated cells adhere, stop proliferating and express high levels of CD14. LPS activates macrophages and elicits an inflammatory response. The cells were washed once with the culture medium and grown for an additional 48 hours in the absence of PMA. The PMA differentiated cells were stimulted with or without LPS (10 μg/ml) for 4 hours and 24 hours.
The cells then were assayed for GAVE7 expression by Northern blot or TaqMan assay. Cell exposed to actin served as a control.
(In general: Real-time PCR tracks product formation cycle by cycle.)

On to Lipopolysaccharide [LPS], for which the GAVE7 expression entry is on record as “down-regulated”.

(Values after patent US20030211577A1, “Novel G protein-coupled receptor, GAVE7” (priority 2001, published 2003).)
